For 17 compounds, IC50 results are on record in patent US9371333B2, “Chromene derivatives and their analoga as Wnt pathway antagonists” (Deutsches Krebsforschungszentrum, priority 2010, dated 2016).

Common to all, as to type: cell-based
In one assay the test system is Hek293T. Briefly: Cytotoxicity in Hek293T (CellTiterGlo). As to conditions: Homo sapiens, HEK-293T, 24 h after compound addition. The procedure: (§1) For examination of cytotoxicity in these cancer cell lines the commercial available CellTiterGlo® Reagent (Promega, USA) was used according to the manufactor.
(§2) Compounds were applied to Hek293T (denoted (a)) or HepG2 (denoted (b)), cultured in Dulbecco's Modified Eagles Medium, supplemented with 10% fetal calf serum and 1% penicillin/streptomycin. Cells were grown in T75 flasks at 37° C., 5% CO2 and trypsinized when 60-80% confluent by adding 2 ml of 0.25% Trypsin-EDTA solution. Cells were then re-suspended into culture medium yielding approx. 4000 cells (a) or 4500 cells (b), suspended in 30 microl medium. 48 h after cell seeding, compounds were added to yield the desired final concentrations. 24 h after compound addition cytotoxicity was evaluated. For this purpose the media was removed and CellTiterGlo® was added according to the manufactors manual. In this assay the luciferase emission readout is directly correlated with the cellular amount of ATP, low luciferase emission thus is reflecting cytotoxicity of a compound.
For orientation: Cellular ATP, detected with luciferase, serves as a proxy for viable cell number.

Another assay has as its system HepG2. Briefly: Cytotoxicity in HepG2 (CellTiterGlo). As to conditions: Homo sapiens, 24 h after compound addition. As for the experimental part: as §1, §2
Assay [1] deals with human fibroblasts (HS-68). Briefly: Cell line specific cytotoxicity, normal cells HS68 (nuclei count). As to conditions: Hoechst labeled nuclei count, at least 72 hr. The procedure:
For examination of cell line-specific cytotoxicity, compounds were applied to human colorectal cancer cells (HCT116, denoted (1); SW480, denoted (2); Dld-1, denoted (3)) and human fibroblasts (HS-68, denoted (4)), cultured in Mc Coy's ((1)) and Dulbecco's Modified Eagles Medium ((2)-(4)), supplemented with 10% ((1)-(3)) and 20% ((4)) fetal calf serum and 1% penicillin/streptomycin. Cells were grown in T75 flasks at 37° C., 5% CO2 and trypsinized when 60-80% confluent by adding 2 ml of 0.25% Trypsin-EDTA (ethylenediaminetetraacetic acid) solution. Cells were then re-suspended into culture medium yielding approx. 750 cells, suspended in 45 microl medium, were plated into each well of a black 384-well plate for fluorescence imaging experiments. […] Compound incubation was terminated by (a) fixation and (b) permeabilisation of cells, followed by (c) fluorescence labeling of cell nuclei for cytometric quantification or by immunocytochemistry for microscopic evaluation of cell morphology. […]
Cell line-specific cytotoxicity was quantified by counting the number of Hoechst labeled nuclei per well of a 384-well plate using a plate cytometer. Data obtained with the cytometer was analysed using standard data analysis software.
Identified hits were further evaluated by visual inspection of fluorescence micrographs obtained from imaging using a conventional fluorescence microscope.

Take `COc1cc(C2C(C#N)=C(N)Oc3c2ccc2ccc(N)nc32)cc(Br)c1OC` (racemic) [(20), 3,6-Diamino-1-(3-bromo-4,5-dimethoxy-phenyl)-1H-4-oxa-5-aza-phenanthrene-2-carbonitrile]: the 50% inhibitory concentration (IC50) was > 90 µM in the assay on Hek293T and 37 µM with HepG2.

Regarding `COc1cc(C2C(C#N)=C(N)Oc3c2ccc2ccccc32)cc(Br)c1OC` (stereo not drawn) [(1), 2-Amino-4-(3-bromo-4,5-dimethoxy-phenyl)-4H-benzo[h]chromene-3-carbonitrile], the half-maximal inhibitory concentration (IC50) in the assay with Hek293T and with HepG2 was > 90 µM each time.

As to `C=CCOc1c(Br)cc(C2C(C(=O)OCC)=C(N)Oc3c2ccc2ccccc32)cc1OC` (stereo not drawn) [(4), 4-(4-Allyloxy-3-bromo-5-methoxy-phenyl)-2-amino-4H-benzo[h]chromene-3-carboxylic acid ethyl ester], the half-maximal inhibitory concentration (IC50) with Hek293T and with HepG2 was > 90 µM throughout.

`CCOC(=O)C1=C(N)Oc2c(ccc3ccccc23)C1c1cc(Br)c(OC)c(OC)c1` (stereo not drawn) [(6), 2-Amino-4-(3-bromo-4,5-dimethoxy-phenyl)-4H-benzo[h]chromene-3-carboxylic acid ethyl ester]: the 50% inhibitory concentration (IC50) in the assay on Hek293T and in the assay on HepG2 was > 90 µM in each case.

Regarding `N#CC1=C(N)Oc2c(ccc3ccccc23)C1c1cc(F)c(F)c(F)c1` (stereo not drawn) [(7), 2-Amino-4-(3,4,5-trifluoro-phenyl)-4H-benzo[h]chromene-3-carbonitrile], the IC50 with Hek293T and in the assay with HepG2 was > 90 µM throughout.

As for `COc1cc(C2C(C#N)=C(N)Oc3c2ccc2ccc(C)nc32)cc(Br)c1OC` (stereo not drawn) [(16), 3-Amino-1-(3-bromo-4,5-dimethoxy-phenyl)-6-methyl-1H-4-oxa-5-aza-phenanthrene-2-carbonitrile], the IC50 in the assay on Hek293T and with HepG2 was > 90 µM each time.

With `COc1cc(C2C(C#N)=C(N)Oc3c2c(O)nc2ccccc32)cc(Br)c1OC` (stereo not drawn) [(17), 2-Amino-4-(3-bromo-4,5-dimethoxy-phenyl)-5-hydroxy-4H-pyrano[3,2-c]quinoline-3-carbonitrile], the IC50 (with Hek293T; in the assay on HepG2; in assay [1]) was > 90 µM each time.

As for `COc1cc(C2C(C#N)=C(N)Oc3c2ccc2ncccc32)cc(Br)c1OC` (stereo not drawn) [(18), 6-Amino-8-(3-bromo-4,5-dimethoxy-phenyl)-8H-5-oxa-1-aza-phenanthrene-7-carbonitrile], the IC50 in the assay with Hek293T and in the assay with HepG2 was > 90 µM throughout.

For the compound `COc1cc(C2C(C#N)=C(N)Oc3c2ccc2ccc(O)nc32)cc(Br)c1OC` (stereo not drawn) [(19), 3-Amino-1-(3-bromo-4,5-dimethoxy-phenyl)-6-hydroxy-1H-4-oxa-5-aza-phenanthrene-2-carbonitrile], the 50% inhibitory concentration (IC50) in the assay with Hek293T and in the assay with HepG2 was > 90 µM throughout.

For `N#CC1=C(N)Oc2cc3ccccc3cc2C1c1cc(F)c(F)c(F)c1` (stereo not drawn) [(28), 2-amino-4-(3,4,5-trifluoro-phenyl)-4H-benzo[g]chromene-3-carbonitrile], the results for the IC50 in the assay with Hek293T and with HepG2 were > 90 µM and 31.7 µM, respectively.

On to `N#CC1=C(N)Oc2cc3ccccc3cc2C1c1cc(F)c(N2CCCCC2)c(F)c1` (stereo not drawn) [(29), 2-amino-4-(3,5-difluoro-4-piperidin-1-yl-phenyl)-4H-benzo[g]chromene-3-carbonitrile], for which the half-inhibitory concentration (IC50) in the assay with Hek293T is > 90 µM; in the assay with HepG2 it was 42.5 µM.

For `COc1cc(C2C(C#N)=C(N)Oc3cc4ccccc4cc32)cc(Br)c1OC` (stereo not drawn) [(30), 2-Amino-4-(3-bromo-4,5-dimethoxy-phenyl)-4H-benzo[g]chromene-3-carbonitrile], the IC50 with Hek293T and in the assay on HepG2 was > 90 µM in each case.

Consider `COc1cc(C2C(C#N)=C(N(C)C)Oc3cc4ccccc4cc32)cc(Br)c1OC` (stereo not drawn) [(31), 2-Dimethylamino-4-(3-bromo-4,5-dimethoxy-phenyl)-4H-benzo[g]chromene-3-carbonitrile], for which the half-inhibitory concentration (IC50) in the assay with Hek293T and in the assay with HepG2 was > 90 µM throughout.

For `N#CC1=C(N)Oc2cc3c(cc2C1c1cc(F)c(F)c(F)c1)OCO3` (stereo not drawn) [(39), 6-Amino-8-(3,4,5-trifluoro-phenyl)-8H-[1,3]dioxolo[4,5-g]chromene-7-carbonitrile], the IC50 (in the assay on Hek293T; in the assay with HepG2; in assay [1]) was > 90 µM throughout.

For `CCOC(=O)C1=C(N)Oc2cc3c(cc2C1c1cc(F)c(F)c(F)c1)OCO3` (stereo not drawn) [(40), 6-Amino-8-(3,4,5-trifluoro-phenyl)-8H-[1,3]dioxolo[4,5-g]chromene-7-carboxylic acid ethyl ester], the concentration for half-maximal inhibition (IC50) with Hek293T and in the assay with HepG2 was > 90 µM each time.

As for `C=CCOc1c(Br)cc(C2C(C#N)=C(N)Oc3cc4c(cc32)OCO4)cc1OC` (stereo not drawn) [(41), 8-(4-Allyloxy-3-bromo-5-methoxy-phenyl)-6-amino-8H-[1,3]dioxolo[4,5-g]chromene-7-carbonitrile], the IC50 with Hek293T and in the assay with HepG2 was > 90 µM each time.

As for `C=CCOc1c(Br)cc(C2C(C(=O)OCC)=C(N)Oc3cc4c(cc32)OCO4)cc1OC` (stereo not drawn) [(42), 8-(4-Allyloxy-3-bromo-5-methoxy-phenyl)-6-amino-8H-[1,3]dioxolo[4,5-g]chromene-7-carboxylic acid ethyl ester], the IC50 with Hek293T and in the assay on HepG2 was > 90 µM each time.

As a reminder, the IC50 is the midpoint of a concentration-inhibition curve. Read a low IC50 as greater potency in that assay.
